Key:
[1] = test system: milk-derived extracellular vesicles; assay: Staining of milk-derived extracellular vesicles with heat treatment, gel filtration analysis (Example 11 / Comparative example 2); details: untreated vs 80° C. for 5 minutes or 15 minutes
Method: Experiments were performed in the same procedure as in Example 10 except that, after the staining agent was added to the extracellular vesicle preparation liquid in Example 10, the mixture was immediately analyzed with a column (untreated), the mixture was analyzed after treated at 80° C. for 5 minutes, or the mixture was analyzed after treated at 80° C. for 15 minutes. Note that the compounds used in the experiments of Example 11 are labeled with the GIF numbers in the graphs.
Experiments were performed in the same procedure as in Comparative example 1 except that, after the staining agent was added to the extracellular vesicle preparation liquid in Comparative example 1, the mixture was immediately analyzed with a column (untreated), the mixture was analyzed after treated at 80° C. for 5 minutes, or the mixture was analyzed after treated at 80° C. for 15 minutes.

[2] = test system: extracellular vesicles of pasteurized milk; assay: Correlation between gel filtration and plate reader detection of extracellular vesicles (Example 17 (2))
Method: Patent Literature 1 discloses that the use of GIF-2250 enables quantification of extracellular vesicles by a plate reader. The correlation between detection of extracellular vesicles by a plate reader with the use of GIF-2250 and detection of extracellular vesicles by gel filtration with the use of GIF-2276 synthesized in Example 1 was examined.
Pasteurized milk (Takanashi) was heated at 60, 70, and 80° C. for 30 minutes and cooled back to room temperature. The extracellular vesicles were then prepared by the procedure described in Example 10, and the pasteurized milk was added thereto so that the final concentration of GIF-2276 synthesized in Example 1 became 1 μM to label the extracellular vesicles. The mixture was analyzed by a high-performance liquid chromatography gel filtration system to find the area of the peak. Extracellular vesicles prepared in the same manner reacted with 3 μM of GIF-2250 to find the fluorescence quantity by using a fluorescent plate reader. Respective values were plotted to find a correlation.

[3] = test system: HEK293 cells; assay: Tracking of labeled lactic acid bacteria (Yakult)-derived extracellular vesicles introduced into cells (Example 16); assay type: cell-based
Method: (§1) The milk-derived extracellular vesicles (exosomes) prepared in the procedure of Example 10 were stained with GIF-2276 at room temperature for 12 hours to label the extracellular vesicles. Unreacted GIF-2276 was removed by Microcon 300K (by Millipore). Lysosomes in HEK293 cells (ThermoFisher) were labeled with LysoBrite Red, and GIF-2276-labeled milk-derived extracellular vesicles were added thereto. After 3 hours, the mixture was observed by a microscope. FIG. 6 illustrates the result. The upper left “2276” in FIG. 6 is a fluorescent photograph of the extracellular vesicles labeled with GIF-2276. The upper right “LysoBright” in FIG. 6 is a fluorescent photograph of the lysosomes labeled with LysoBrite Red. The lower left in FIG. 6 is a photograph obtained by merging the fluorescent photograph of the extracellular vesicles labeled with GIF-2276 and the fluorescent photograph of the lysosomes labeled with LysoBrite Red. The lower right in FIG. 6 is a photograph of HEK293 cells captured in visible light.
Experiments were performed in the same procedure as in Example 15 except that, instead of milk-derived extracellular vesicles, lactic acid bacteria (Yakult)-derived extracellular vesicles were used. FIG. 7 illustrates the result.

[4] = test system: milk-derived extracellular vesicles; assay: Staining of milk-derived extracellular vesicles, analysis by high-performance liquid chromatography gel filtration system (Example 10 / Comparative example 1); details: staining agent 1 μM, room temperature 12 hours
Method: Commercially available pasteurized milk (by Seki milk or Takanashi) of 1 L was centrifuged at 8000 rpm for 30 minutes, and the supernatant was filtrated by a coffee filter. Subsequently, acetic acid was added thereto to be 1%, and the mixture was further centrifuged at 8000 rpm for 30 minutes. The supernatant thereof was further filtrated by a coffee filter. The liquid obtained after the filtration was filtrated by a filter of 0.45 μm (by Sartorius), and the filtrate was filtrated by a filter of 0.1 μm (by Sartorius). Since extracellular vesicles remain on the filter of 0.1 μm, the extracellular vesicles were washed with 5 mL of phosphate buffer solution three times. Eventually, extracellular vesicles were collected with 1 mL of phosphate buffer solution. Further, 10 μL of the purified extracellular vesicle liquid was diluted with 40 μL of phosphate buffer solution (hereafter, referred to as “extracellular vesicle preparation liquid”)
Compounds 1 to 9 synthesized in Examples 1 to 9 were diluted with DMSO to produce a staining agent used in Example 10.
ExoSparkler Exosome Membrane Labeling Kit-Red (ExoSP Model No. EX02, by Dojin) was diluted with a DMSO solution in accordance with the instructions for use to produce a staining agent of Comparative example 1.
The staining agent produced in Example 10 was added to an extracellular vesicle preparation liquid so that the final concentration of the staining agent became 1 μM. Further, 1 μL of the staining agent produced in Comparative example 1 was added to an extracellular vesicle preparation liquid. In Example 10 and Comparative example 1, the staining agent was added to the extracellular vesicle preparation liquid and then allowed to stand at room temperature for 12 hours. After 12 hours elapsed, 10 μL of the reaction product was analyzed by a high-performance liquid chromatography gel filtration system. […] Detection was performed on ExoSP at 560 nm for excitation and 600 nm for fluorescence detection and was performed on the compounds synthesized in Examples 1 to 8 at 480 nm for excitation and 530 nm for fluorescence detection. […]

[5] = test system: HEK293 cells; assay: Tracking of labeled milk-derived extracellular vesicles introduced into cells (Example 15); assay type: cell-based
Method: as §1

[6] = test system: milk-derived extracellular vesicles; assay: Gel filtration comparison with compound of Patent Literature 1 (Example 17 / Comparative example 4); details: reaction time 3 hours at room temperature
Text: The present applicant has disclosed GIF-2250 illustrated below in Patent Literature 1. GIF-2250 differs from the compounds of the present application in that the portion indicated by “→” is NH. First, the effect of this difference in structure provided on size separation using gel filtration was observed. Note that the synthesis procedure of GIF-2250 is disclosed in Patent Literature 1. The features disclosed in Patent Literature 1 are incorporated in the present specification by reference in its entirety.
Experiments were performed in the same procedure as in Example 10 except that GIF-2276 and GIF-2250 (Comparative example 4), which is disclosed in Patent Literature 1, were used and the reaction time was 3 hours at room temperature. FIG. 8 illustrates a graph in which respective experimental results are overlapped.

[7] = test system: lactic acid bacteria (Yakult)-derived extracellular vesicles; assay: Staining of lactic acid bacteria (Yakult)-derived extracellular vesicles, gel filtration analysis (Example 14 / Comparative example 3); details: staining agent 1 μM, room temperature 12 hours
Method: The staining agent produced in Example 10 was added to an extracellular vesicle preparation liquid so that the final concentration of the staining agent became 1 μM. Further, 1 μL of the staining agent produced in Comparative example 1 was added to an extracellular vesicle preparation liquid. In Example 10 and Comparative example 1, the staining agent was added to the extracellular vesicle preparation liquid and then allowed to stand at room temperature for 12 hours. After 12 hours elapsed, 10 μL of the reaction product was analyzed by a high-performance liquid chromatography gel filtration system. As the eluent for the column, 10 mM of Tris (pH 6.8), 0.25 mM of EDTA, and 50 mM of NaCl were used. Detection was performed on ExoSP at 560 nm for excitation and 600 nm for fluorescence detection and was performed on the compounds synthesized in Examples 1 to 8 at 480 nm for excitation and 530 nm for fluorescence detection. A column having 3 cm of Gen 2 qEV original/70 nm (by iZQN) and Shodex OHpak SB-807 (by Showa denko) connected to each other was used.
Next, experiments using various lactic fermenting beverages were performed. As the lactic fermenting beverage, A: Yakult (by Yakult), B: Onakayorokobu lactic acid bacteria (by Kurashimoa), and C: Pirkle (by Nissin Foods) were used. Each 500 mL of the lactic fermenting beverages of A to C listed above was centrifuged at 8000 rpm for 30 minutes, and the supernatant was filtrated by a coffee filter. The liquid obtained after the filtration was filtrated by a filter of 0.45 μm (by Sartorius), and the filtrate was filtrated by a filter of 0.033 μm (by GVS). Since extracellular vesicles remain on the filter of 0.033 μm, the extracellular vesicles were washed with 5 mL of phosphate buffer solution three times. Eventually, extracellular vesicles were collected with 1 mL of phosphate buffer solution. […]

| Compound | effect of heat treatment on fluorescence intensity [1] | sensitivity order in staining of pasteurized milk extracellular vesicles [4] | sensitivity order in staining of lactic acid bacteria extracellular vesicles [7] | other results |
| --- | --- | --- | --- | --- |
| CN(C)c1ccc(CN(C)C2CCc3cc(OCCn4cc(CCOc5ccc([N+](=O)[O-])c6nonc56)nn4)ccc32)cc1 (stereo not shown) [GIF-2274] | significant increase in the fluorescence intensity due to heat treatment | – | – | – |
| CN(C)c1ccc(CCCN(C)C2CCc3cc(OCCOc4ccc([N+](=O)[O-])c5nonc45)ccc32)cc1 (stereo not shown) [GIF-2276] | significant increase in the fluorescence intensity due to heat treatment | highest in the order of GIF-2281, GIF-2280, and GIF-2276 | – | quantification of extracellular vesicles by plate reader ([2]; depiction omitted): successfully quantified; correlation of gel filtration peak area (GIF-2276) with plate reader fluorescence intensity (GIF-2250) ([2]; milk heated at 60, 70, 80° C. for 30 minutes, GIF-2276 1 μM, GIF-2250 3 μM): high correlation; tracking of labeled extracellular vesicles in cells [3]: can be tracked in the cells to which the same was introduced; tracking of labeled extracellular vesicles in cells ([5]; HEK293 cells, after 3 hours): can be tracked in the cells to which the same was introduced; localization of signals of labeled extracellular vesicles in cells ([5]; lysosomes labeled with LysoBrite Red, microscope after 3 hours): most of signals from extracellular vesicles are localized in the lysosomes; peak of milk-derived extracellular vesicles in gel filtration [6]: a clear peak due to the size of milk-derived extracellular vesicles was found |
| CN(C)c1ccc(CCCN(C)C2CCc3cc(OCCCCCCOc4ccc([N+](=O)[O-])c5nonc45)ccc32)cc1 (stereo not shown) [GIF-2280] | – | highest in the order of GIF-2281, GIF-2280, and GIF-2276 | – | – |
| CN(CCCc1ccc(N(C)C)cc1)Cc1ccc(OCCOc2ccc([N+](=O)[O-])c3nonc23)cc1 [GIF-2281] | – | highest in the order of GIF-2281, GIF-2280, and GIF-2276 | highest in the order of GIF-2277, GIF-2281, and GIF-2282 | – |
| CN(C)c1ccc(CCCN(C)C2CCc3cc(OCCOCCOCCOCCOc4ccc([N+](=O)[O-])c5nonc45)ccc32)cc1 (stereo not shown) [GIF-2282] | – | – | highest in the order of GIF-2277, GIF-2281, and GIF-2282 | – |
| CN(C)c1ccc(CCCN(C)C2CCc3cc(OCCNc4ccc([N+](=O)[O-])c5nonc45)ccc32)cc1 (stereo not shown) [GIF-2250, reference compound] | – | – | – | peak of milk-derived extracellular vesicles in gel filtration [6]: no peak of milk-derived extracellular vesicles was found |
| CN(C)c1ccc(CCCN(C)C2CCc3cc(OCCOCCOc4ccc([N+](=O)[O-])c5nonc45)ccc32)cc1 (stereo not shown) [GIF-2277] | significant increase in the fluorescence intensity due to heat treatment | – | highest in the order of GIF-2277, GIF-2281, and GIF-2282 | – |
